In ChEMBL document CHEMBL1156789, “Design and synthesis of 5,5'-disubstituted aminohydantoins as potent and selective human beta-secretase (BACE1) inhibitors” (J Med Chem, 2010):

Tests used:
Cathepsin D [1] = molecular target: T1, Cathepsin D (Homo sapiens, UniProt P07339); experiment: Inhibition of human cathepsin D by FRET based peptide cleavage assay
Beta-secretase 2 = molecular target: T2, Beta-secretase 2 (Homo sapiens, UniProt Q9Y5Z0); experiment: Inhibition of human BACE2 by FRET based peptide cleavage assay
T2 sequence (Q9Y5Z0 whole entry): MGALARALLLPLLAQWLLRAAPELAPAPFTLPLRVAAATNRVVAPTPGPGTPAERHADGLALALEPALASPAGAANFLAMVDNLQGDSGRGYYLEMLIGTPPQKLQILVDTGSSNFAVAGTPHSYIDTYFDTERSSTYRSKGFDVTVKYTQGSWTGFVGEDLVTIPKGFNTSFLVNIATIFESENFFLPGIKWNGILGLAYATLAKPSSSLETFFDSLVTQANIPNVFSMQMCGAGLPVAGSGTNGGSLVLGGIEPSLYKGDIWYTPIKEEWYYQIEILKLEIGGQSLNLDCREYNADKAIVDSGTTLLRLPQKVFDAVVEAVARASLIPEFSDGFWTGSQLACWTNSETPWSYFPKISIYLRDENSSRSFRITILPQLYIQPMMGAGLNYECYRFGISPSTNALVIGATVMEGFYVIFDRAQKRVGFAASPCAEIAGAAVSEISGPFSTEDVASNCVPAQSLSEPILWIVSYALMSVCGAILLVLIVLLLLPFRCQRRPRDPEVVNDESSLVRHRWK

[2] = Inhibition of pepsin by FRET based peptide cleavage assay
Renin = molecular target: T3, Renin (Homo sapiens, UniProt P00797); experiment: Inhibition of human recombinant renin by FRET based peptide cleavage assay
T3 sequence (P00797 whole entry): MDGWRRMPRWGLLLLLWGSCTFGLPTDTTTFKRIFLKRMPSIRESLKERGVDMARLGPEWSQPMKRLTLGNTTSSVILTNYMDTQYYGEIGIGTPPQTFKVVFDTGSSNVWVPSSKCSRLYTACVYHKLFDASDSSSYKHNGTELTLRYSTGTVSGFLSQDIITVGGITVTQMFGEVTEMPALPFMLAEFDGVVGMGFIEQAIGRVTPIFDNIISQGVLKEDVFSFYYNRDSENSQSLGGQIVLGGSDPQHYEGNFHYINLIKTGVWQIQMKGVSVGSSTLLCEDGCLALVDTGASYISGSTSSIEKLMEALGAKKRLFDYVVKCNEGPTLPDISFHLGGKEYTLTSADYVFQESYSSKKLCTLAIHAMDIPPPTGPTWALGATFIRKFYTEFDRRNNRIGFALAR

Beta-secretase 1 [3] = molecular target: T4, Beta-secretase 1 (Homo sapiens, UniProt P56817); experiment: Inhibition of BACE1 expressed in CHOK1 cells coexpressing human recombinant wild type APP assessed as blockade of amyloid beta production by ELISA; assay type: cell-based, CHO-K1
Cathepsin D [4] = molecular target: T1, Cathepsin D; experiment: Inhibition of human cathepsin D at 100 uM by FRET based peptide cleavage assay
Beta-secretase 1 [5] = molecular target: T4, Beta-secretase 1; experiment: Inhibition of human BACE1 by FRET based peptide cleavage assay

T1 sequence (P07339 65-162 limits assumed): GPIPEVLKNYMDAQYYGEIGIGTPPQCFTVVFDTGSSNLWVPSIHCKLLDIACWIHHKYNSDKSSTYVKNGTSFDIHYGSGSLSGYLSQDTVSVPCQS
T1 sequence (P07339 169-412 limits assumed): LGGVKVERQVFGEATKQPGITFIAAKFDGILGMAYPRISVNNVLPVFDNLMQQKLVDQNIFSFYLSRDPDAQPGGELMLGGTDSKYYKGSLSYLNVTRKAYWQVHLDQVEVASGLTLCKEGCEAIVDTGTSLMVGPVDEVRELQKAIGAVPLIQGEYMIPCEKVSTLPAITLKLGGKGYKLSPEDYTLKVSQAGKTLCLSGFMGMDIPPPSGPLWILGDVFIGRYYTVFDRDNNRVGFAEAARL
T4 sequence (P56817 whole entry): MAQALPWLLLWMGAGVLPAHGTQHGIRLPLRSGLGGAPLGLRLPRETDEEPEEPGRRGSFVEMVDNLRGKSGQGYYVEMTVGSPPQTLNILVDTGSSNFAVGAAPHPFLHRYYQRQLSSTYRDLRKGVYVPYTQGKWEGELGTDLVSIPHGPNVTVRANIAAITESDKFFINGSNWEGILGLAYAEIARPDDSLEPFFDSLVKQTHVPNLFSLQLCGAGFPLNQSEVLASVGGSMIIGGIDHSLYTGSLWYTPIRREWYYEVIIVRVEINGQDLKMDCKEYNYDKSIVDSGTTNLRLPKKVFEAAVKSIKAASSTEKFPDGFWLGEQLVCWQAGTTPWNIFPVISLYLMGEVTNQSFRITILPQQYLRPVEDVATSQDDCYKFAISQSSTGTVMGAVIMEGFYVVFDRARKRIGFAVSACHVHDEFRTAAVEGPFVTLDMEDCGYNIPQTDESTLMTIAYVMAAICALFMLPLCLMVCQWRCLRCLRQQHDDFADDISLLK

Structure (SMILES) | IC50 (Cathepsin D [1]) | IC50 (Beta-secretase 2) | IC50 [2] | IC50 (Renin) | EC50 (Beta-secretase 1 [3]) | inhibition (Cathepsin D [4]) | IC50 (Beta-secretase 1 [5])
CN1C(=O)C(c2cccc(-c3cccnc3)c2)(c2ccc3c(c2)CCO3)N=C1N (configuration not stated) | 23.9 µM | 1130 nM |  |  |  |  | 
COc1ccc(C2(c3ccc(F)c(-c4cncnc4)c3)N=C(N)N(C)C2=O)cc1C (configuration not stated) | 6.7 µM | 2800 nM | 35.3 µM | 57.6 µM |  |  | 
COc1ccc(C2(c3cccc(-c4cncnc4)c3)N=C(N)N(C)C2=O)cc1C (configuration not stated) | 14.3 µM | 1590 nM | 33.3 µM | 42.3 µM |  |  | 
COc1ccc([C@@]2(C34CC5CC(CC(C5)C3)C4)N=C(N)N(C)C2=O)cc1C | 13.1 µM | 73600 nM |  |  |  |  | 
COc1ccc(C2(c3cccc(-c4cccnc4)c3)N=C(N)N(C)C2=O)cc1C (configuration not stated) |  |  | 19.6 µM | 93.4 µM |  |  | 
COc1ccc(C2(c3cccc(-c4cccnc4)c3)N=C(N)N(C)C2=O)cc1OC1CCCC1 (configuration not stated) | 8.3 µM | 300 nM |  |  |  |  | 
COc1ccc([C@]2(C34CC5CC(CC(C5)C3)C4)N=C(N)N(C)C2=O)cc1C | 9.21 µM | 4020 nM |  |  |  |  | 
COc1ccc(C2(c3cccc(-c4cccnc4)c3)N=C(N)N(C)C2=O)cc1OC (configuration not stated) | 23.1 µM |  |  |  |  |  | 
COc1ccc(C2(c3ccc(C)c(-c4cccnc4)c3)N=C(N)N(C)C2=O)cc1C (configuration not stated) | 2.47 µM | 960 nM |  |  |  |  | 
NC1=NC(c2ccccc2)(c2ccccc2)C(=O)N1 |  | 87200 nM |  |  | 23500 nM | 13% | 
CN1C(=O)[C@@](c2ccc(OC(F)(F)F)cc2)(c2ccc(F)c(-c3cncnc3)c2)N=C1N | 2.33 µM | 7540 nM |  |  |  |  | 
COc1ccc([C@]2(C34CC5CC(CC(C5)C3)C4)N=C(N)N(C)C2=O)cc1 | 13.4 µM | 230 nM |  |  |  |  | 
CCCCOc1ccc(C2(C34CC5CC(CC(C5)C3)C4)N=C(N)N(C)C2=O)cc1 (configuration not stated) | 8.4 µM | 5550 nM |  |  |  |  | 
COc1ccc(C2(c3cccc(-c4cccnc4)c3)N=C(N)N(C)C2=O)cc1OC(C)C (configuration not stated) | 12.2 µM | 1840 nM |  |  | 870 nM |  | 60 nM
COc1ccc(C2(c3cccc(-c4cccnc4)c3)N=C(N)N(C)C2=O)cc1F (configuration not stated) | 5.2 µM | 520 nM |  |  | 420 nM |  | 50 nM
CN1C(=O)[C@](c2ccc(OC(F)(F)F)cc2)(c2ccc(F)c(-c3cncnc3)c2)N=C1N | 11.6 µM | 9970 nM |  |  |  |  | 
CCOc1cc(C2(c3cccc(-c4cccnc4)c3)N=C(N)N(C)C2=O)ccc1OC (configuration not stated) | 10.3 µM | 600 nM |  |  | 520 nM |  | 50 nM
COc1ccc(C2(c3cccc(-c4cccnc4)c3)N=C(N)N(C)C2=O)cc1C#N (configuration not stated) | 7.3 µM | 550 nM |  |  | 4500 nM |  | 150 nM
COc1ccc(C2(c3cccc(-c4cccnc4F)c3)N=C(N)N(C)C2=O)cc1C (configuration not stated) |  |  |  |  | 110 nM |  | 
COc1ccc(-c2cccc(C3(c4ccc(OC(F)(F)F)cc4)N=C(N)N(C)C3=O)c2)cn1 (configuration not stated) | 4.43 µM | 2510 nM |  |  |  |  | 
CN1C(=O)C(c2ccc(OC(F)(F)F)cc2)(c2cccc(-c3cncnc3)c2F)N=C1N (configuration not stated) | 26.2 µM | 5040 nM |  |  | 2830 nM |  | 1360 nM
CN1C(=O)C(c2ccc(OC(F)(F)F)cc2)(c2cc(F)cc(-c3cncnc3)c2)N=C1N (configuration not stated) | 8.55 µM | 1260 nM | 35.1 µM | 13.8 µM |  |  | 320 nM

Structure (SMILES) | IC50 (Cathepsin D [1]) | IC50 (Beta-secretase 2) | IC50 [2] | IC50 (Renin) | EC50 (Beta-secretase 1 [3]) | inhibition (Cathepsin D [4]) | IC50 (Beta-secretase 1 [5])
CN1C(=O)C(c2ccc(OC(F)(F)F)cc2)(c2ccc(F)c(-c3cncnc3)c2)N=C1N (configuration not stated) | 4.18 µM | 9690 nM |  |  |  |  | 
CCN1C(=O)C(c2ccccc2)(c2ccccc2)N=C1N |  | 5160 nM |  |  | 8130 nM | 33% | 
COc1ccc(C2(c3ccccc3)N=C(N)N(C)C2=O)cc1 (configuration not stated) |  | 1720 nM |  |  | 3350 nM | 3% | 3100 nM
CN1C(=O)C(c2ccc(OC(F)(F)F)cc2)(C23CC4CC(CC(C4)C2)C3)N=C1N (configuration not stated) | 6.22 µM | 3870 nM |  |  |  |  | 
COc1cccc(C2(c3ccccc3)N=C(N)N(C)C2=O)c1 (configuration not stated) |  | 1190 nM |  |  | 5900 nM | 46% | 3470 nM
CN1C(=O)C(c2ccccc2)(C23CC4CC(CC(C4)C2)C3)N=C1N (configuration not stated) | 27.3 µM | 830 nM |  |  |  |  | 
COc1ccc(C2(c3cccc(-c4cccnc4)c3)N=C(N)N(C)C2=O)cc1C1CCCC1 (configuration not stated) | 1.87 µM | 960 nM |  |  |  |  | 
COc1ccc([C@]2(c3ccc(F)c(-c4cccnc4F)c3)N=C(N)N(C)C2=O)cc1C | 2.71 µM | 1640 nM |  |  |  |  | 
CCOc1ccc(C2(C34CC5CC(CC(C5)C3)C4)N=C(N)N(C)C2=O)cc1 (configuration not stated) | 11.5 µM | 2530 nM |  |  |  |  | 
CN1C(=O)C(c2cccc(-c3cccnc3)c2)(c2ccc3c(c2)OCO3)N=C1N (configuration not stated) | 21.4 µM | 540 nM |  |  |  |  | 
COc1ccc(C2(C34CC5CC(CC(C5)C3)C4)N=C(N)N(C)C2=O)cc1 (configuration not stated) | 15.3 µM | 680 nM | 14.4 µM | 53.3 µM |  |  | 
CCCCOc1cc(C2(c3cccc(-c4cccnc4)c3)N=C(N)N(C)C2=O)ccc1OC (configuration not stated) | 8.18 µM | 170 nM |  |  | 670 nM |  | 50 nM
COc1ccc(C2(c3ccc(F)c(-c4cccnc4F)c3)N=C(N)N(C)C2=O)cc1C (configuration not stated) | 2.41 µM | 1840 nM | 66.3 µM | 23.2 µM |  |  | 
COc1ccc(C2(c3ccc(C#N)c(-c4cccnc4)c3)N=C(N)N(C)C2=O)cc1C (configuration not stated) | 2.19 µM | 2320 nM |  |  | 1750 nM |  | 630 nM
CN1C(=O)C(c2cccc(-c3cccnc3)c2)(c2ccc3c(c2)OCCO3)N=C1N (configuration not stated) | 10.9 µM | 500 nM |  |  |  |  | 
COc1ccc(C2(c3cccc(-c4cccnc4)c3)N=C(N)N(C)C2=O)cc1Cl (configuration not stated) | 6.28 µM | 560 nM |  |  |  |  | 
CN1C(=O)C(c2ccccc2)(c2ccc(Cl)cc2)N=C1N (configuration not stated) | 38.2 µM | 1840 nM |  |  | 2130 nM |  | 2250 nM
COc1ccc(C2(C34CC5CC(CC(C5)C3)C4)N=C(N)N(C)C2=O)cc1C (configuration not stated) | 11.1 µM | 6290 nM | 15 µM | 59.5 µM |  |  | 
COc1ncccc1-c1cccc(C2(c3ccc(OC(F)(F)F)cc3)N=C(N)N(C)C2=O)c1 (configuration not stated) | 2.05 µM | 5990 nM |  |  | 2570 nM |  | 520 nM
CCCOc1cc(C2(c3cccc(-c4cccnc4)c3)N=C(N)N(C)C2=O)ccc1OC (configuration not stated) | 10.1 µM | 200 nM |  |  | 680 nM |  | 50 nM
CN1C(=O)C(c2ccccc2)(c2cccc(Cl)c2)N=C1N (configuration not stated) | 69.2 µM | 420 nM |  |  | 6970 nM |  | 2500 nM
COc1ccc(C2(c3cccc(-c4cccnc4)c3)N=C(N)N(C)C2=O)cc1C(F)(F)F (configuration not stated) | 3.51 µM | 1000 nM |  |  |  |  | 
